Assay results taken from patent US9422240B2, “Partially saturated nitrogen-containing heterocyclic compound” (TAISHO PHARMACEUTICAL CO., LTD, priority 2012, dated 2016).

Target: human PHD2 (Homo sapiens (Human), UniProt Q9GZT9)
Assay: Test 2: human PHD2 inhibitory activity, fluorescence polarization assay of HIF-1α peptide proline hydroxylation
Format: biochemical
Conditions: for IC50: human PHD2, fluorescence polarization assay, 20-min incubation at 30° C.; for inhibition at 1 µM: test compound's concentration 1 μM, Test 2, fluorescence polarization assay, read-out: Percent inhibition (% at 1 μM)
Procedure: (1) Expression and Preparation of Human PHD2
A registered sequence of human PHD2 (NM_022051) was introduced into pcDNA3.1/Hygro(+) vector (Invitrogen), and the sequence was verified. […] The suspension of disrupted cells was centrifuged at 4° C. and 100,000×g for 30 minutes and the supernatant was recovered as a cell lysate.
(2) Measurement of Human PHD2 Inhibitory Activity
The activity of human PHD2 enzyme was measured with a substrate which is a 19-residue partial peptide based on the sequence of HIF-1α; specifically, the hydroxylation of a proline residue in the peptide was measured by FP (Fluorescence Polarization).
A test compound and the substrate solution were preliminarily added onto 384-well plates and reaction was initiated by adding a human PHD2 enzyme solution (40 ng/well). After 20-min incubation at 30° C., an EDTA-containing quench solution was added and the amount of the proline residues hydroxylated via binding to an added HIF—OH antibody solution was quantified by fluorescence polarization.
The fluorescence polarization of each well was measured and the human PHD2 inhibitory activity of each test compound was calculated on the basis of the values for the test compound-free group.

Chain of human PHD2 (Q9GZT9 whole entry): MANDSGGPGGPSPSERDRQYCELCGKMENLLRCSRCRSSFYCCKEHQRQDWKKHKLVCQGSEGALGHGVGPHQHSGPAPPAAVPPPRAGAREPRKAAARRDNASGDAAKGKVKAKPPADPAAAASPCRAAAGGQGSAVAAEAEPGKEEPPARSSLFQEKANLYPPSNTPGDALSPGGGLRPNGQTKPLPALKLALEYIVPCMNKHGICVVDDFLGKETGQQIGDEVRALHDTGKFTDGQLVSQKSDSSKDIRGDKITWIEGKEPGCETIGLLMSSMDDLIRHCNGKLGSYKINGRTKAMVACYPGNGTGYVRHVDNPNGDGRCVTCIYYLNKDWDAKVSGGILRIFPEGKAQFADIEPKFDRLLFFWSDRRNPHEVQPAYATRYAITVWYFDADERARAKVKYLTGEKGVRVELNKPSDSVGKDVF

Compound | IC50 [nM] | inhibition at 1 µM [%]
O=C(O)CNC(=O)C1=C(O)CCN(CC2CCN(C(=O)OCc3ccccc3)CC2)C1=O [Ex. 1-248] |  | 94
O=C(O)CNC(=O)C1=C(O)CCNC1=O [Ex. 1-308] |  | 41
CN1CCC(O)=C(C(=O)NCC(=O)O)C1=O [Ex. 1-309] |  | 58
O=C(O)CNC(=O)C1=C(O)CC2(CCCCC2)CN(Cc2ccccc2)C1=O [Ex. 1-310] |  | 59
O=C(O)CNC(=O)C1=C(O)CC2(CCNCC2)N(Cc2ccc(-c3ccccc3)cc2)C1=O [Ex. 1-311] |  | 83
O=C(O)CNC(=O)C1=C(O)CC2(CCCCC2)CN(Cc2ccc(-c3ccccc3)cc2)C1=O [Ex. 1-312] |  | 86
O=C(O)CNC(=O)C1=C(O)CC2(CNC2)N(Cc2ccc(-c3ccccc3)cc2)C1=O [Ex. 1-313] |  | 96
O=C(O)CNC(=O)C1=C(O)CC2(CNC(=O)C2)N(Cc2ccc(-c3ccccc3)cc2)C1=O (centres unmarked) [Ex. 1-314] |  | 86
CN1CC2(CC1=O)CC(O)=C(C(=O)NCC(=O)O)C(=O)N2Cc1ccc(-c2ccccc2)cc1 (centres unmarked) [Ex. 1-315] |  | 81
CCCCCCCCCN1CCC(O)=C(C(=O)NCC(=O)O)C1=O [Ex. 1-317] |  | 85
CC1C(O)=C(C(=O)NCC(=O)O)C(=O)N1Cc1ccc(-c2ccccc2)cc1 (centres unmarked) [Ex. 1-323] |  | 87
CC1(C)C(O)=C(C(=O)NCC(=O)O)C(=O)N1Cc1ccc(-c2ccccc2)cc1 [Ex. 1-324] |  | 91
O=C(O)CNC(=O)C1=C(O)C2(CCCCC2)N(Cc2ccc(-c3ccccc3)cc2)C1=O [Ex. 1-325] |  | 90
O=C(O)CNC(=O)C1=C(O)C(c2ccccc2)N(Cc2ccc(-c3ccccc3)cc2)C1=O (centres unmarked) [Ex. 1-326] |  | 71
CS(=O)(=O)c1ccc(CN2C(=O)C(C(=O)NCC(=O)O)=C(O)CC23CCCCC3)cc1 [Ex. 1-328] |  | 63
O=C(O)CNC(=O)C1=C(O)C2(CCCCC2)N(Cc2ccc(-c3ccc(C(F)(F)F)cc3)cc2)C1=O [Ex. 1-329] |  | 87
CC(C)(C)c1ccc(-c2ccc(CN3C(=O)C(C(=O)NCC(=O)O)=C(O)C34CCCCC4)cc2)cc1 [Ex. 1-330] |  | 69
CS(=O)(=O)c1ccc(CN2CC3(CCCCC3)C(O)=C(C(=O)NCC(=O)O)C2=O)cc1 [Ex. 1-331] |  | 75
O=C(O)CNC(=O)C1=C(O)C2(CCCCC2)N(CC2CCC(c3ccccc3)CC2)C1=O (centres unmarked) [Ex. 1-332] |  | 73
O=C(O)CNC(=O)C1=C(O)C(F)(F)CN(Cc2ccc(C(F)(F)F)cc2)C1=O [Ex. 1-334] |  | 96
O=C(O)CNC(=O)C1=C(O)CCN(Cc2cnc(C(F)(F)F)nc2)C1=O [Ex. 1-338] |  | 71
O=C(O)CNC(=O)C1=C(O)CCN(Cc2cnc(N3CCOCC3)s2)C1=O [Ex. 1-340] |  | 69
O=C(O)CNC(=O)C1=C(O)CCN(Cc2ccc(Oc3ccc(C(F)(F)F)cc3)cn2)C1=O [Ex. 1-356] | 60 | 96
O=C(O)CNC(=O)C1=C(O)C2(CCC2)CN(Cc2ccc(OC(F)(F)F)c(Cl)c2)C1=O [Ex. 1-357] |  | 74
COc1ccc(-c2ccc(CN3CC(C)(C)C(O)=C(C(=O)NCC(=O)O)C3=O)cc2)cn1 [Ex. 1-358] |  | 88
COc1ccc(-c2ccc(CN3CC4(CCC4)C(O)=C(C(=O)NCC(=O)O)C3=O)cc2)cn1 [Ex. 1-361] |  | 93
O=C(O)CNC(=O)C1=C(O)C2(CCC2)CN(Cc2ccc(OC3CC3)cc2)C1=O [Ex. 1-363] |  | 77

Results, then the compound that gave them:

IC50 [nM] | inhibition at 1 µM [%] | Compound
409 | 84 | O=C(O)CNC(=O)C1=C(O)CCN(Cc2ccc(Oc3ncccn3)cc2)C1=O [Ex. 1-226]
 | 87 | O=C(O)CNC(=O)C1=C(O)CCN(Cc2ccc(-c3cncnc3)cc2)C1=O [Ex. 1-316]
 | 96 | O=C(O)CNC(=O)C1=C(O)CN(Cc2ccc(-c3ccccc3)cc2)C1=O [Ex. 1-318]
 | 42 | CC(C)CN1CCC(O)=C(C(=O)NCC(=O)O)C1=O [Ex. 1-319]
 | 57 | O=C(O)CNC(=O)C1=C(O)CCN(Cc2cncnc2)C1=O [Ex. 1-320]
 | 84 | O=C(O)CNC(=O)C1=C(O)CCN(Cc2ccc(C(=O)N3CCCCC3)cc2)C1=O [Ex. 1-321]
 | 77 | CCCNC(=O)c1ccc(CN2CCC(O)=C(C(=O)NCC(=O)O)C2=O)cc1 [Ex. 1-322]
 | 81 | CS(=O)(=O)c1ccc(CN2CCC(O)=C(C(=O)NCC(=O)O)C2=O)cc1 [Ex. 1-327]
92 | 91 | Cc1ccc(Oc2ncc(CN3CCC(O)=C(C(=O)NCC(=O)O)C3=O)cc2C)cn1 [Ex. 1-333]
 | 73 | O=C(O)CNC(=O)C1=C(O)CCN(Cc2ccc(C(=O)O)cc2)C1=O [Ex. 1-335]
 | 82 | O=C(O)CNC(=O)C1=C(O)CCN(Cc2ccc(-c3cccnc3)cn2)C1=O [Ex. 1-336]
 | 66 | Cn1cc(CN2CCC(O)=C(C(=O)NCC(=O)O)C2=O)cn1 [Ex. 1-337]
 | 40 | Cc1nc(CN2CCC(O)=C(C(=O)NCC(=O)O)C2=O)c[nH]1 [Ex. 1-339]
 | 66 | Cc1csc(CN2CCC(O)=C(C(=O)NCC(=O)O)C2=O)n1 [Ex. 1-341]
 | 57 | CN1CCN(c2ccc(CN3CCC(O)=C(C(=O)NCC(=O)O)C3=O)cc2)CC1 [Ex. 1-342]
 | 51 | CN(C)CCCOc1ccc(CN2CCC(O)=C(C(=O)NCC(=O)O)C2=O)cc1 [Ex. 1-343]
 | 76 | O=C(O)CNC(=O)C1=C(O)CCN(Cc2ccc(OCCO)cc2)C1=O [Ex. 1-344]
 | 55 | CN(C)CCNC(=O)c1ccc(CN2CCC(O)=C(C(=O)NCC(=O)O)C2=O)cc1 [Ex. 1-345]
 | 80 | O=C(O)CNC(=O)C1=C(O)CCN(Cc2ccc(OCC(=O)O)cc2)C1=O [Ex. 1-346]
 | 55 | O=C(O)CNC(=O)C1=C(O)CCN(Cc2ccc(C(=O)NCCO)cc2)C1=O [Ex. 1-347]
 | 76 | O=C(O)CNC(=O)C1=C(O)CCN(Cc2ccc(C(=O)NCc3ccccn3)cc2)C1=O [Ex. 1-348]
 | 74 | O=C(O)CNC(=O)C1=C(O)CCN(Cc2ccc(C(=O)NCCc3ccccn3)cc2)C1=O [Ex. 1-349]
 | 61 | O=C(O)CNC(=O)C1=C(O)CCN(Cc2ccc(C(=O)NCCN3CCCC3=O)cc2)C1=O [Ex. 1-350]
 | 81 | O=C(O)CNC(=O)C1=C(O)CCN(Cc2ccc(C(=O)NCC(=O)O)cc2)C1=O [Ex. 1-351]
 | 91 | O=C(O)CNC(=O)C1=C(O)CCN(C[C@H]2C[C@@H]2c2ccc(F)cc2)C1=O [Ex. 1-352]
61 | 96 | COc1cccc(Oc2ccc(CN3CCC(O)=C(C(=O)NCC(=O)O)C3=O)cn2)c1 [Ex. 1-354]
 | 69 | CC1(C)CN(Cc2ccc(OC3CC3)cc2)C(=O)C(C(=O)NCC(=O)O)=C1O [Ex. 1-359]
 | 83 | CC1(C)CN(Cc2ccc(C3CC3)cc2)C(=O)C(C(=O)NCC(=O)O)=C1O [Ex. 1-362]
 | 97 | Cc1cccc(COc2ccc(CN3CCC(O)=C(C(=O)NCC(=O)O)C3=O)cc2)c1 [Ex. 1-364]
56 | 97 | O=C(O)CNC(=O)C1=C(O)CCN(Cc2ccc(Oc3ccc(C(F)(F)F)nc3)cc2)C1=O [Ex. 1-365]
